{
  "source": "patent US20100267561A1",
  "about": "“HERBICIDAL PYRIDAZINONE DERIVATIVES” (priority 2007, published 2010)",
  "assay_in_all_cases": "Test E pre-/postemergence plant response",
  "assay_type_in_all_cases": "in vivo",
  "conditions_in_all_cases": "scale 0 to 100",
  "key": {"[1]": {"tested_on": "Italian ryegrass (Lolium multiflorum)", "in_short": "(§1)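 Plants scored visually versus controls on a 0–100 scale (100 = complete control) 14 to 21 days after treatment in the greenhouse. Test chemicals in a surfactant-containing non-phytotoxic solvent were applied to soil preemergence or to 1- to 4-leaf plants, 2–18 cm tall.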"}, "[2]": {"tested_on": "black mustard (Brassica nigra)", "in_short": "as §1"}, "[3]": {"tested_on": "common groundsel (Senecio vulgaris)", "in_short": "as §1"}, "[4]": {"tested_on": "common purslane (Portulaca oleracea)", "in_short": "as §1"}, "[5]": {"tested_on": "goosegrass (Eleusine indica)", "in_short": "as §1"}, "[6]": {"tested_on": "guineagrass (Panicum maximum)", "in_short": "as §1"}, "[7]": {"tested_on": "large crabgrass (Digitaria sanguinalis)", "in_short": "as §1"}, "[8]": {"tested_on": "pitted morningglory (Ipomoea lacunosa)", "in_short": "as §1"}, "[9]": {"tested_on": "purple nutsedge (Cyperus rotundus)", "in_short": "as §1"}, "[10]": {"tested_on": "quackgrass (Elytrigia repens)", "in_short": "as §1"}, "[11]": {"tested_on": "southern (S.) sandbur (Cenchrus echinatus)", "in_short": "as §1"}, "[12]": {"tested_on": "surinam grass (Brachiaria decumbens)", "in_short": "as §1"}},
  "data": [
    {"smiles": "CCc1cc(-c2ccc(C(F)(F)F)cc2)nn1-c1c(O)cnn(C)c1=O", "note": "[Compound 11, 4-[5-ethyl-3-[4-(trifluoromethyl)phenyl]-1H-pyrazol-1-yl]-5-hydroxy-2-methyl-3(2H)-pyridazinone]", "values": [
      {"measurement": "Plant response rating, Ryegrass, Italian", "setting": "[1]; 4 g ai/ha, Postemergence", "result": 75},
      {"measurement": "Plant response rating, Ryegrass, Italian", "setting": "[1]; 16 g ai/ha, Preemergence", "result": 80},
      {"measurement": "Plant response rating, Ryegrass, Italian", "setting": "[1]; 31 g ai/ha, Preemergence", "result": 100},
      {"measurement": "Plant response rating, Ryegrass, Italian", "setting": "[1]; Postemergence, 8 g ai/ha", "result": 90},
      {"measurement": "Plant response rating, Ryegrass, Italian", "setting": "[1]; Postemergence, 16 g ai/ha", "result": 95},
      {"measurement": "Plant response rating, Ryegrass, Italian", "setting": "[1]; Postemergence, 31 g ai/ha", "result": 95},
      {"measurement": "Plant response rating, Ryegrass, Italian", "setting": "[1]; Preemergence, 4 g ai/ha", "result": 20},
      {"measurement": "Plant response rating, Mustard, Black", "setting": "[2]; 4 g ai/ha, Postemergence", "result": 0},
      {"measurement": "Plant response rating, Mustard, Black", "setting": "[2]; 8 g ai/ha, Preemergence", "result": 0},
      {"measurement": "Plant response rating, Mustard, Black", "setting": "[2]; 16 g ai/ha, Preemergence", "result": 0},
      {"measurement": "Plant response rating, Mustard, Black", "setting": "[2]; 31 g ai/ha, Preemergence", "result": 0},
      {"measurement": "Plant response rating, Mustard, Black", "setting": "[2]; Postemergence, 8 g ai/ha", "result": 0},
      {"measurement": "Plant response rating, Mustard, Black", "setting": "[2]; Postemergence, 16 g ai/ha", "result": 0},
      {"measurement": "Plant response rating, Mustard, Black", "setting": "[2]; Postemergence, 31 g ai/ha", "result": 0},
      {"measurement": "Plant response rating, Mustard, Black", "setting": "[2]; Preemergence, 4 g ai/ha", "result": 0},
      {"measurement": "Plant response rating, Groundsel", "setting": "[3]; 4 g ai/ha, Postemergence", "result": 0},
      {"measurement": "Plant response rating, Groundsel", "setting": "[3]; 16 g ai/ha, Preemergence", "result": 0},
      {"measurement": "Plant response rating, Groundsel", "setting": "[3]; 31 g ai/ha, Preemergence", "result": 0},
      {"measurement": "Plant response rating, Groundsel", "setting": "[3]; Postemergence, 8 g ai/ha", "result": 0},
      {"measurement": "Plant response rating, Groundsel", "setting": "[3]; Postemergence, 16 g ai/ha", "result": 0},
      {"measurement": "Plant response rating, Groundsel", "setting": "[3]; Postemergence, 31 g ai/ha", "result": 0},
      {"measurement": "Plant response rating, Groundsel", "setting": "[3]; Preemergence, 4 g ai/ha", "result": 0},
      {"measurement": "Plant response rating, Purslane", "setting": "[4]; 4 g ai/ha, Postemergence", "result": 0},
      {"measurement": "Plant response rating, Purslane", "setting": "[4]; 16 g ai/ha, Preemergence", "result": 0},
      {"measurement": "Plant response rating, Purslane", "setting": "[4]; 31 g ai/ha, Preemergence", "result": 0},
      {"measurement": "Plant response rating, Purslane", "setting": "[4]; Postemergence, 8 g ai/ha", "result": 0},
      {"measurement": "Plant response rating, Purslane", "setting": "[4]; Postemergence, 16 g ai/ha", "result": 0},
      {"measurement": "Plant response rating, Purslane", "setting": "[4]; Postemergence, 31 g ai/ha", "result": 0},
      {"measurement": "Plant response rating, Purslane", "setting": "[4]; Preemergence, 4 g ai/ha", "result": 0},
      {"measurement": "Plant response rating, Goosegrass", "setting": "[5]; 4 g ai/ha, Postemergence", "result": 10},
      {"measurement": "Plant response rating, Goosegrass", "setting": "[5]; 8 g ai/ha, Preemergence", "result": 25},
      {"measurement": "Plant response rating, Goosegrass", "setting": "[5]; 16 g ai/ha, Preemergence", "result": 50},
      {"measurement": "Plant response rating, Goosegrass", "setting": "[5]; 31 g ai/ha, Preemergence", "result": 90},
      {"measurement": "Plant response rating, Goosegrass", "setting": "[5]; Postemergence, 8 g ai/ha", "result": 35},
      {"measurement": "Plant response rating, Goosegrass", "setting": "[5]; Postemergence, 16 g ai/ha", "result": 80},
      {"measurement": "Plant response rating, Goosegrass", "setting": "[5]; Postemergence, 31 g ai/ha", "result": 85},
      {"measurement": "Plant response rating, Goosegrass", "setting": "[5]; Preemergence, 4 g ai/ha", "result": 25},
      {"measurement": "Plant response rating, Guineagrass", "setting": "[6]; 4 g ai/ha, Postemergence", "result": 90},
      {"measurement": "Plant response rating, Guineagrass", "setting": "[6]; 16 g ai/ha, Preemergence", "result": 98},
      {"measurement": "Plant response rating, Guineagrass", "setting": "[6]; 31 g ai/ha, Preemergence", "result": 98},
      {"measurement": "Plant response rating, Guineagrass", "setting": "[6]; Postemergence, 8 g ai/ha", "result": 95},
      {"measurement": "Plant response rating, Guineagrass", "setting": "[6]; Postemergence, 16 g ai/ha", "result": 98},
      {"measurement": "Plant response rating, Guineagrass", "setting": "[6]; Postemergence, 31 g ai/ha", "result": 98},
      {"measurement": "Plant response rating, Guineagrass", "setting": "[6]; Preemergence, 4 g ai/ha", "result": 0},
      {"measurement": "Plant response rating, Crabgrass, Large", "setting": "[7]; 4 g ai/ha, Postemergence", "result": 60},
      {"measurement": "Plant response rating, Crabgrass, Large", "setting": "[7]; 8 g ai/ha, Preemergence", "result": 0},
      {"measurement": "Plant response rating, Crabgrass, Large", "setting": "[7]; 16 g ai/ha, Preemergence", "result": 30},
      {"measurement": "Plant response rating, Crabgrass, Large", "setting": "[7]; 31 g ai/ha, Preemergence", "result": 100},
      {"measurement": "Plant response rating, Crabgrass, Large", "setting": "[7]; Postemergence, 8 g ai/ha", "result": 70},
      {"measurement": "Plant response rating, Crabgrass, Large", "setting": "[7]; Postemergence, 16 g ai/ha", "result": 95},
      {"measurement": "Plant response rating, Crabgrass, Large", "setting": "[7]; Postemergence, 31 g ai/ha", "result": 100},
      {"measurement": "Plant response rating, Crabgrass, Large", "setting": "[7]; Preemergence, 4 g ai/ha", "result": 0},
      {"measurement": "Plant response rating, Morningglory", "setting": "[8]; 4 g ai/ha, Postemergence", "result": 0},
      {"measurement": "Plant response rating, Morningglory", "setting": "[8]; 16 g ai/ha, Preemergence", "result": 0},
      {"measurement": "Plant response rating, Morningglory", "setting": "[8]; 31 g ai/ha, Preemergence", "result": 0},
      {"measurement": "Plant response rating, Morningglory", "setting": "[8]; Postemergence, 8 g ai/ha", "result": 0},
      {"measurement": "Plant response rating, Morningglory", "setting": "[8]; Postemergence, 16 g ai/ha", "result": 0},
      {"measurement": "Plant response rating, Morningglory", "setting": "[8]; Postemergence, 31 g ai/ha", "result": 0},
      {"measurement": "Plant response rating, Morningglory", "setting": "[8]; Preemergence, 4 g ai/ha", "result": 0},
      {"measurement": "Plant response rating, Nutsedge, Purple", "setting": "[9]; 4 g ai/ha, Postemergence", "result": 0},
      {"measurement": "Plant response rating, Nutsedge, Purple", "setting": "[9]; 16 g ai/ha, Preemergence", "result": 0},
      {"measurement": "Plant response rating, Nutsedge, Purple", "setting": "[9]; 31 g ai/ha, Preemergence", "result": 0},
      {"measurement": "Plant response rating, Nutsedge, Purple", "setting": "[9]; Postemergence, 8 g ai/ha", "result": 0},
      {"measurement": "Plant response rating, Quackgrass", "setting": "[10]; 4 g ai/ha, Postemergence", "result": 40},
      {"measurement": "Plant response rating, Quackgrass", "setting": "[10]; 16 g ai/ha, Preemergence", "result": 60},
      {"measurement": "Plant response rating, Quackgrass", "setting": "[10]; 31 g ai/ha, Preemergence", "result": 75},
      {"measurement": "Plant response rating, Quackgrass", "setting": "[10]; Postemergence, 8 g ai/ha", "result": 65},
      {"measurement": "Plant response rating, Quackgrass", "setting": "[10]; Postemergence, 16 g ai/ha", "result": 90},
      {"measurement": "Plant response rating, Quackgrass", "setting": "[10]; Postemergence, 31 g ai/ha", "result": 95},
      {"measurement": "Plant response rating, Quackgrass", "setting": "[10]; Preemergence, 4 g ai/ha", "result": 0},
      {"measurement": "Plant response rating, Sandbur, S.", "setting": "[11]; 4 g ai/ha, Postemergence", "result": 90},
      {"measurement": "Plant response rating, Sandbur, S.", "setting": "[11]; 16 g ai/ha, Preemergence", "result": 90},
      {"measurement": "Plant response rating, Sandbur, S.", "setting": "[11]; 31 g ai/ha, Preemergence", "result": 95},
      {"measurement": "Plant response rating, Sandbur, S.", "setting": "[11]; Postemergence, 8 g ai/ha", "result": 95},
      {"measurement": "Plant response rating, Sandbur, S.", "setting": "[11]; Postemergence, 16 g ai/ha", "result": 100},
      {"measurement": "Plant response rating, Sandbur, S.", "setting": "[11]; Postemergence, 31 g ai/ha", "result": 100},
      {"measurement": "Plant response rating, Sandbur, S.", "setting": "[11]; Preemergence, 4 g ai/ha", "result": 0},
      {"measurement": "Plant response rating, Surinam Grass", "setting": "[12]; 4 g ai/ha, Postemergence", "result": 25},
      {"measurement": "Plant response rating, Surinam Grass", "setting": "[12]; 16 g ai/ha, Preemergence", "result": 95},
      {"measurement": "Plant response rating, Surinam Grass", "setting": "[12]; 31 g ai/ha, Preemergence", "result": 95},
      {"measurement": "Plant response rating, Surinam Grass", "setting": "[12]; Postemergence, 8 g ai/ha", "result": 80},
      {"measurement": "Plant response rating, Surinam Grass", "setting": "[12]; Postemergence, 16 g ai/ha", "result": 100},
      {"measurement": "Plant response rating, Surinam Grass", "setting": "[12]; Postemergence, 31 g ai/ha", "result": 100},
      {"measurement": "Plant response rating, Surinam Grass", "setting": "[12]; Preemergence, 4 g ai/ha", "result": 0}
    ]}
  ]
}
